Measurements reported in patent US20190364943A1, “NOVEL COMPOSITIONS FOR FLAVOR ENHANCEMENT” (International Flavors & Fragrances Inc., priority 2016, published 2019).

What was measured:
sweet taste = assay: Effect on sweet taste, intensity scale 0 to 10 (panelists); assay type: in vivo, human; details: 20 ppm in sucrose in water (2.5% by weight); scale 0 to 10, control anchored as 5
Experimental: (§1) The effect of guanine and its nucleobase analog adenine on other basic tastes was examined and compared. The control solutions were prepared as follows:
(i) A sweet control solution of sucrose in water (2.5% by weight);
(§2) Respective test solutions of adenine and guanine were prepared in different control solutions (2 or 20 ppm).
(§3) The taste perception of each sample was evaluated by a group of panelists using an intensity scale of 0 to 10, where 0=none, 5=moderate, 10=extremely strong. Panelists were instructed to anchor the intensity of the control solutions as 5 on the scale. The intensity scores were analyzed using one-way ANOVA with Post Hoc LSD multiple comparisons. Average intensity scores are reported in the following:
(§4) The effect of guanosine and its corresponding nucleotide, guanosine 5′-monophosphate (GMP), on additional basic tastes was examined and compared. The control solutions of sweet, bitter, salty and umami tastes were prepared as above in Example II. Respective test solutions of guanosine and GMP were prepared in different control solutions (2 or 20 ppm).

salty taste = assay: Effect on salty taste, intensity scale 0 to 10 (panelists); assay type: in vivo, human; details: 20 ppm in sodium chloride in water (0.3% by weight); scale 0 to 10, control anchored as 5
Experimental: as §1
(iii) A salty control solution of sodium chloride in water (0.3% by weight); and
as §2, §3, §4

umami taste = assay: Effect on umami taste, intensity scale 0 to 10 (panelists); assay type: in vivo, human; details: 20 ppm in MSG in water (0.05% by weight); scale 0 to 10, control anchored as 5
Experimental: as §1
(iv) An umami control solution of monosodium glutamate (MSG) in water (0.05% by weight).
as §2, §3, §4

sour taste [1] = assay: Sour taste intensity score in citric acid base solution, scale 0 to 10 (panelists); assay type: in vivo, human; details: scale 0 to 10, base anchored as 5
Experimental: The effect of adenine and guanine on sour taste was examined and compared. Respective test sample solutions of adenine and guanine were prepared in the base solution (each of 5 and 100 ppb, respectively).
as §3, with “The sour taste perception” for “The taste perception”, “of the base solution as 5” for “of the control solutions as 5”, “the following: […]” for “the following:”

bitter taste = assay: Effect on bitter taste, intensity scale 0 to 10 (panelists); assay type: in vivo, human; details: 2 ppm in caffeine in water (0.05% by weight); scale 0 to 10, control anchored as 5
Experimental: as §1
(ii) A bitter control solution of caffeine in water (0.05% by weight);
as §2, §3, §4

sour taste [2] = assay: Paired comparison of sour taste, test sample solution vs citric acid base solution (sensory panel); assay type: in vivo, human; details: for Sour taste enhancement, in words (table footnote): 5 and 100 ppb in base solution (citric acid 400 ppm); for Result (sour taste vs base solution): paired comparison
Experimental: The enhancement of sour taste by guanine and guanosine was subsequently examined. A base solution of citric acid (HOC(COOH)(CH2COOH)2) in water (400 ppm) was prepared and used in the following examples of the present invention. Test sample solutions of guanine and guanosine were prepared in the base solution (each of 5 and 100 ppb, respectively).
(§5) Sample pairs (a base solution and a test sample solution) were presented in a blind and pseudorandom order to a sensory panel. The enhancement of sour taste was recorded based on the percentage of the panelists who ranked the sample sourer. Binomial statistical analysis was used to compare the enhancement of sour taste for each sample pair. Significance was at 95% Confidence Interval (p<0.05). The test results are as follows:
The effect of botanical extract such as Chrysanthemum parthenium extract on sour taste was examined. A test sample solution of the extract in the base solution (15 ppm) was prepared.
Sensory evaluation was conducted using the paired comparison method. A base solution and a test sample solution, unidentifiable by using 3-digit codes, were presented in a blind and pseudorandom order to a sensory panel. The enhancement of sour taste was recorded based on the percentage of the panelists who ranked the sample sourer. The data were analyzed using binomial statistical analysis.

[3] = Taste description of the compound alone in water; assay type: in vivo, human; details: 1 ppm
sour taste [4] = assay: Paired comparison of sour taste, GMP solution vs guanosine solution (sensory panel); assay type: in vivo, human
Experimental: The effect of guanosine and GMP on sour taste was examined and compared. Respective test sample solutions of GMP and guanosine were prepared in the base solution (each of 5 and 100 ppb, respectively).
as §5, with “(a GMP” for “(a base”, “a guanosine” for “a test sample”, “(p<0.05).” for “(p<0.05). The test results are as follows:”

[5] = pH level of sample solutions; assay type: physicochemical
sour taste [6] = assay: Paired comparison of sour taste against control solution of citric acid 450 ppm (sensory panel); assay type: in vivo, human
Experimental: A control sample solution of citric acid in water (450 ppm) and a test sample solution of guanosine in the base solution (1.25 ppm) were prepared. Sample pairs of (i) a base solution and a control sample solution; and (ii) a test sample solution and a control sample solution were each presented in a blind and pseudorandom order to a sensory panel. The enhancement of sour taste was recorded based on the percentage of the panelists who ranked the sample sourer.

[7] = 5 ppb in base solution (citric acid 400 ppm)
[8] = 100 ppb in base solution (citric acid 400 ppm)
[9] = 5 ppb in base solution (citric acid in water, 400 ppm)
[10] = 100 ppb in base solution (citric acid in water, 400 ppm)
[11] = guanosine 1.25 ppm in base solution (citric acid 400 ppm)

In the case of Nc1ncnc2nc[nH]c12 [Adenine, adenine, reference compound], the “Sweet, average intensity score” value (sweet taste) is reported as 5.76, the “Salty, average intensity score” value (salty taste) is reported as 5.16 and the “Umami, average intensity score” value (umami taste) is reported as 5.02. For the same molecule, the “Intensity Score (sour taste)” value (sour taste [1]; [7]) was 5.14, the “Intensity Score (sour taste)” value (sour taste [1]; [8]) was 5.73 and the “Bitter, average intensity score” value (bitter taste) was 6.33.

With Nc1nc2c(ncn2[C@@H]2O[C@H](COP(=O)(O)O)[C@@H](O)[C@H]2O)c(=O)[nH]1 [GMP, guanosine 5′-monophosphate, reference compound] the “Sweet, average intensity score” value (sweet taste) was 5.42, the “Salty, average intensity score” value (salty taste) was 5.34 and the “Umami, average intensity score” value (umami taste) was 9.60. The “Bitter, average intensity score” value (bitter taste) was 6.50.

With Nc1nc2nc[nH]c2c(=O)[nH]1 [Guanine, guanine] the “Sweet, average intensity score” value (sweet taste) was 4.80, the “Salty, average intensity score” value (salty taste) was 5.06 and the “Umami, average intensity score” value (umami taste) was 4.82. For the same molecule, the “Sour taste enhancement, in words (table footnote)” value (sour taste [2]) was “*Guanine and guanosine provided intense and lasting sour taste enhancement”, the “Result (sour taste vs base solution)” value (sour taste [2]; [9]) was “Sourer than the base solution” and the “Result (sour taste vs base solution)” value (sour taste [2]; [10]) was “Sourer than the base solution”. For the same molecule, the “Sour taste of the compound itself” value [3] was “Neither guanine nor guanosine possessed sour taste”, the Taste description [3] was “somewhat astringent, mouth-drying and mouth-coating” and the “Intensity Score (sour taste)” value (sour taste [1]; [7]) was 6.44. The “Intensity Score (sour taste)” value (sour taste [1]; [8]) was 7.08 and the “Bitter, average intensity score” value (bitter taste) was 6.50.

In the case of Nc1nc2c(ncn2[C@@H]2O[C@H](CO)[C@@H](O)[C@H]2O)c(=O)[nH]1 [Guanosine, guanosine], the “Result (which solution of the pair tasted sourer)” value (sour taste [4]; 5 ppb each in base solution (citric acid 400 ppm)) is reported as “Guanosine solution tasted sourer”, the “Result (which solution of the pair tasted sourer)” value (sour taste [4]; 100 ppb each in base solution (citric acid 400 ppm)) is reported as “Guanosine solution tasted sourer” and the “pH Level” value ([5]; test solution: citric acid 400 ppm + guanosine 1.25 ppm (base alone pH 3.19)) is reported as 3.20. For the same molecule, the “Sweet, average intensity score” value (sweet taste) was 5.52, the “Sour taste enhancement and pH, in words” value (sour taste [6]; [11]) was “enhanced sour taste without decreasing the pH level” and the “Sour taste enhancement compared with additional citric acid, in words” value (sour taste [6]; [11]) was “greater than that was achieved by 50 ppm citric acid”. For the same molecule, the “Panelist Selection (%), ranked sourer” value (sour taste [6]; test (citric acid 400 ppm + guanosine 1.25 ppm) vs control (citric acid 450 ppm)) was 100%, the “Salty, average intensity score” value (salty taste) was 5.22 and the “Umami, average intensity score” value (umami taste) was 4.98. For the same molecule, the “Sour taste enhancement, in words (table footnote)” value (sour taste [2]) was “*Guanine and guanosine provided intense and lasting sour taste enhancement”, the “Result (sour taste vs base solution)” value (sour taste [2]; [9]) was “Sourer than the base solution” and the “Result (sour taste vs base solution)” value (sour taste [2]; [10]) was “Sourer than the base solution”. For the same molecule, the “Sour taste of the compound itself” value [3] was “Neither guanine nor guanosine possessed sour taste”, the Taste description [3] was “somewhat astringent, mouth-drying and slightly bitter” and the “Bitter, average intensity score” value (bitter taste) was 7.00.

For O=C(O)CC(O)(CC(=O)O)C(=O)O [citric acid, reference compound], the “pH Level” value ([5]; control solution: citric acid in water, 450 ppm) was 3.17, the “Panelist Selection (%), ranked sourer” value (sour taste [6]; control (citric acid 450 ppm) vs base (citric acid 400 ppm)) was 100% and the “Panelist Selection (%), ranked sourer” value (sour taste [6]; control (citric acid 450 ppm) vs test (citric acid 400 ppm + guanosine 1.25 ppm)) was 0%.
